{"source": "patent US6251903A", "about": "“Alkyl, azido, alkoxy, and fluoro-substituted and fused quinoxalinediones and the use thereof as glycine receptor antagonist” (priority 2000, dated 2001)", "key": {"neurons": {"test_system": "neurons", "conditions": "literature; cited from earlier work"}, "[1]": {"conditions": "literature, cited from earlier work"}, "[2]": {"test_system": "glycine binding site of the NMDA receptor", "conditions": "literature, cited from earlier work"}, "animals": {"test_system": "animals", "conditions": "literature; cited from earlier work"}, "[3]": {"test_system": "non-NMDA glutamate receptors", "conditions": "literature, cited from earlier work"}, "glycine binding site": {"target": "glycine binding site (Rattus norvegicus, UniProt P35439)", "assay": "affinity for the glycine binding site / glycine/NMDA receptor (Ki; method not stated)", "conditions": "Table III; read-out: Ki", "description": "The binding affinities of quinoxaline-2,3-diones at NMDA receptor glycine sites also were estimated by electrophysiological assays with either cloned rat NMDA receptors expressed in Xenopus oocytes, or non-NMDA receptors expressed in oocytes by whole rat brain poly(A)^+ RNA. […] For NMDA receptors Ki values were approximated by averaging values at three subtype combinations (NR1A/NR2A, NR1A/NR2B, and NR1A/NR2C)."}, "DBA-2 mice": {"test_system": "DBA-2 mice", "assay": "audiogenic seizure model in DBA-2 mice", "format": "in vivo", "conditions": "Mus musculus, ip, 0.5 h; i.p. injection", "description": "The anticonvulsant activity of the glycine and excitatory amino acid antagonists can be assessed in the audiogenic seizure model in DBA-2 mice as follows. DBA-2 mice can be obtained from Jackson Laboratories, Bar Harbor, Maine. These mice at an age of <27 days develop a tonic seizure within 5-10 seconds and die when they are exposed to a sound of 14 kHz (sinus wave) at 110 dB (Lonsdale, D., Dev. Pharmacol. Ther. 4:28 (1982)). […] 21 day old DBA-2 mice are used for all experiments. Compounds are given intraperitoneally in either saline, DMSO, or polyethyleneglycol-400. Appropriate solvent controls are included in each experiment. Dose response curves are constructed by giving increasing doses of drug from 1 mg/kg to 100 mg/kg. Each dose group (or solvent control) consists of at least six animals."}, "[4]": {"conditions": "listed as 6-cyano-7-nitroquinoxaline-2,3-dione"}}, "note": "“Also recorded” adds a separate entry of the source. Where two headings read alike, the source gives them in different places."}
{"smiles": "N#Cc1cc2nc(O)c(O)nc2cc1[N+](=O)[O-]", "note": "[6-cyano-7-nitro-1,4-dihydroquinoxaline-2,3-dione]", "values": [{"measurement": "neuroprotective efficacy", "setting": "neurons", "result": "neuroprotective in vitro"}, {"measurement": "penetration of the blood/brain barrier (words)", "setting": "[1]", "result": "incapable of crossing the blood/brain barrier after i.p. administration"}, {"measurement": "penetration of the blood/brain barrier (words)", "setting": "[1]; listed as CNQX", "result": "poor access to the central nervous system"}, {"measurement": "penetration of the blood/brain barrier (words)", "setting": "[1]; listed as cyano-7-nitro-1,4-dihydroquinoxaline-2,3-dione", "result": "poor access to the central nervous system"}, {"measurement": "glycine site antagonism or affinity (words)", "setting": "[2]", "result": "can antagonize the responses to L-glutamate by interacting with the glycine recognition sites; also recorded: inhibit [^3 H] glycine binding to the strychnine-insensitive glycine binding sites; also recorded: antagonizes NMDA receptor-mediated responses by a competitive interaction of the glycine binding site"}, {"measurement": "glycine site antagonism or affinity (words)", "setting": "[2]; [4]", "result": "glycine antagonists"}, {"measurement": "in vivo activity", "setting": "animals", "result": "antagonize responses mediated by NMDA-associated glycine recognition sites in vivo"}, {"measurement": "antagonism at kainate / AMPA / non-NMDA receptors", "setting": "[3]", "result": "more potent antagonists of kainate than glycine"}, {"measurement": "antagonism at kainate / AMPA / non-NMDA receptors", "setting": "[3]; [4]", "result": "AMPA"}, {"measurement": "antagonism at kainate / AMPA / non-NMDA receptors", "setting": "[3]; listed as 7-cyano-6-nitro-1,4-dihydroquinoxaline-2,3-dione", "result": "potent non-NMDA glutamate receptor antagonists"}]}
{"smiles": "O=c1[nH]c2cc(F)c(F)c(Br)c2[nH]c1=O", "note": "[Br F F H]", "values": [{"measurement": "Ki", "setting": "glycine binding site", "result": 2300, "unit": "nM"}, {"measurement": "ED50", "setting": "DBA-2 mice", "result": 30, "unit": "mg/kg"}]}
